Measured values published in US20130005747A1, “METHOD FOR SELECTING A CANCER THERAPY” (Cyclacel Limited, priority 2010, published 2013).

How the values were obtained:
Assay in all cases: Fractional growth, 72 h seliciclib
Assay type in all cases: cell-based, human
[1] = system: 786-O; settings: 786-O (Kidney), 15 μM seliciclib
Description: (§1) A total of 270 human cancer cell lines from diverse cancer histopathologic types were investigated.

[2] = system: 8505C; settings: 8505C (Thyroid), 15 μM seliciclib
Description: as §1

[3] = system: A-427; settings: A-427 (Lung: NSCLC), 15 μM seliciclib
Description: as §1

[4] = system: A431; settings: A431 (Skin), 15 μM seliciclib
Description: as §1

[5] = system: A549; settings: A549 (Lung: NSCLC), 15 μM seliciclib
Description: as §1

[6] = system: BFTC-909; settings: BFTC-909 (Kidney), 15 μM seliciclib
Description: as §1

[7] = system: BPH-1; settings: BPH-1 (Prostate), 15 μM seliciclib
Description: as §1

[8] = system: COLO 320DM; settings: COLO 320DM (Intestine), 15 μM seliciclib
Description: as §1

[9] = system: DAN-G; settings: DAN-G (Pancreas), 15 μM seliciclib
Description: as §1

[10] = system: G-292 Clone A141B1; settings: G-292 Clone A141B1 (Bone), 15 μM seliciclib
Description: as §1

[11] = system: G-401; settings: G-401 (Kidney), 15 μM seliciclib
Description: as §1

[12] = system: GAMG; settings: GAMG (Brain), 15 μM seliciclib
Description: as §1

[13] = system: GTL-16; settings: GTL-16 (Stomach), 15 μM seliciclib
Description: as §1

[14] = system: H2373; settings: H2373 (Lung), 15 μM seliciclib
Description: as §1

[15] = system: HDQ-P1; settings: HDQ-P1 (Breast), 15 μM seliciclib
Description: as §1

[16] = system: HTC-C3; settings: HTC-C3 (Thyroid), 15 μM seliciclib
Description: as §1

[17] = system: HeLa; settings: HeLa (Cervix), 15 μM seliciclib
Description: as §1

[18] = system: HuH-7; settings: HuH-7 (Liver), 15 μM seliciclib
Description: as §1

[19] = system: LS174T; settings: LS174T (Intestine), 15 μM seliciclib
Description: as §1

[20] = system: MDA-MB-231; settings: MDA-MB-231 (Breast), 15 μM seliciclib
Description: as §1

[21] = system: NAE; settings: NAE (Skin), 15 μM seliciclib
Description: as §1

[22] = system: NCI-H1435; settings: NCI-H1435 (Lung: NSCLC), 15 μM seliciclib
Description: as §1

[23] = system: NCI-H1651; settings: NCI-H1651 (Lung: NSCLC), 15 μM seliciclib
Description: as §1

[24] = system: NCI-H1944; settings: NCI-H1944 (Lung: NSCLC), 15 μM seliciclib
Description: as §1

[25] = system: NCI-H2122; settings: NCI-H2122 (Lung: NSCLC), 15 μM seliciclib
Description: as §1

[26] = system: PC-14; settings: PC-14 (Lung: NSCLC), 15 μM seliciclib
Description: as §1

[27] = system: PC-9; settings: PC-9 (Lung: NSCLC), 15 μM seliciclib
Description: as §1

[28] = system: PCI-30; settings: PCI-30 (Head & Neck), 15 μM seliciclib
Description: as §1

[29] = system: PCI-38; settings: PCI-38 (Head & Neck), 15 μM seliciclib
Description: as §1

[30] = system: Panc 08.13; settings: Panc 08.13 (Pancreas), 15 μM seliciclib
Description: as §1

[31] = system: RT-112; settings: RT-112 (Bladder), 15 μM seliciclib
Description: as §1

[32] = system: SK-N-AS; settings: SK-N-AS (Brain), 15 μM seliciclib
Description: as §1

[33] = system: SK-N-MC; settings: SK-N-MC (Brain), 15 μM seliciclib
Description: as §1

[34] = system: SU.86.86; settings: SU.86.86 (Pancreas), 15 μM seliciclib
Description: as §1

[35] = system: SW 1573; settings: SW 1573 (Lung: NSCLC), 15 μM seliciclib
Description: as §1

[36] = system: TYK-nu; settings: TYK-nu (Ovary), 15 μM seliciclib
Description: as §1

[37] = system: YAPC; settings: YAPC (Pancreas), 15 μM seliciclib
Description: as §1

CC[C@H](CO)Nc1nc(NCc2ccccc2)c2ncn(C(C)C)c2n1 [seliciclib, roscovitine]
Fractional Growth [1]: 0.3998 | Fractional Growth [2]: 0.4214 | Fractional Growth [3]: 0.4252 | Fractional Growth [4]: 0.3116 | Fractional Growth [5]: 0.1925 | Fractional Growth [6]: 0.7132 | Fractional Growth [7]: 0.6039 | Fractional Growth [8]: 0.3188 | Fractional Growth [9]: 0.6841 | Fractional Growth [10]: 0.6393 | Fractional Growth [11]: 0.3542 | Fractional Growth [12]: 0.571 | Fractional Growth [13]: 0.6482 | Fractional Growth [14]: 0.6168 | Fractional Growth [15]: 0.8137 | Fractional Growth [16]: 0.3914 | Fractional Growth [17]: 0.9192 | Fractional Growth [18]: 0.3911 | Fractional Growth [19]: 0.3713 | Fractional Growth [20]: 0.4643 | Fractional Growth [21]: 0.3413 | Fractional Growth [22]: 0.6379 | Fractional Growth [23]: 0.6289 | Fractional Growth [24]: 0.6921 | Fractional Growth [25]: 0.1093 | Fractional Growth [26]: 0.5776 | Fractional Growth [27]: 0.7822 | Fractional Growth [28]: 0.5541 | Fractional Growth [29]: 0.3656 | Fractional Growth [30]: 0.4222 | Fractional Growth [31]: 0.243 | Fractional Growth [32]: 0.7261 | Fractional Growth [33]: 0.283 | Fractional Growth [34]: 0.3887 | Fractional Growth [35]: 0.6076 | Fractional Growth [36]: 0.3005 | Fractional Growth [37]: 0.588
